{"source": "patent US5908924A", "about": "“Cloning and expression of the gene encoding thermoanaerobacter ethanolicus 39E secondary-alcohol dehydrogenase and enzyme biochemical characterization” (Michigan State University, priority 1997, dated 1999)", "key": {"[1]": {"biological_target": "T1, recombinant T. ethanolicus 2° Adh (Thermoanaerobacter pseudethanolicus, UniProt B0KBL1)", "T1 sequence (B0KBL1 2-353)": "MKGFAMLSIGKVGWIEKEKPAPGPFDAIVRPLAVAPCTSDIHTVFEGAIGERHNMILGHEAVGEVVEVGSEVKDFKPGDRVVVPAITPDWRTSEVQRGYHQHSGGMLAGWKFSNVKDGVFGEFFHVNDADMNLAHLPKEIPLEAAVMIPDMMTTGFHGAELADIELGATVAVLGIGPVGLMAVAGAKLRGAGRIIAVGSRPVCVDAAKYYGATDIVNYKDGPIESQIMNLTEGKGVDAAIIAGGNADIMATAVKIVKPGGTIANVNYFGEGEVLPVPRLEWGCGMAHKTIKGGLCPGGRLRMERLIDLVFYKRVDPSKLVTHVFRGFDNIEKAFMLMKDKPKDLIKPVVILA", "test": "chemical modification (DTNB, DEPC) and reactivation by DTT with metal salts or EDTA", "format": "biochemical, Thermoanaerobacter ethanolicus 39E", "set-up": "homotetramer; activity recovery of DTNB-inactivated enzyme with DTT plus zinc: dose or concentration left out as unconfirmed", "details": "for effect on enzyme reactivation by DTT after DTNB inactivation: metal salts 0.01 mM to 1.0 mM, EDTA 0.5 mM to 3.0 mM", "protocol": "Cysteine residues were reversibly modified using dithionitrobenzoate (DTNB) at 25° C. and 60° C.. […] Histidine residues were chemically modified with diethylpyrocarbonate (DEPC) by incubation with 20 mM or 40 mM DEPC in 50 mM phosphate buffer (pH 6.0) at 25° C. for 1.0 h and the reaction was quenched by addition of 0.5×volume of 0.5 M imidazole (pH 6.5)."}, "T. brockii 2° Adh": {"test_system": "T. brockii 2° Adh", "details": "sulfhydryl modification by p-chloromercuribenzoate; cited from earlier work"}, "[2]": {"biological_target": "T1, recombinant T. ethanolicus 2° Adh", "test": "standard 2° Adh activity assay (NADP+ reduction coupled to alcohol oxidation at 60° C.), Kmapp and Vmaxapp", "details": "for Vmaxapp / Km: 60° C.; for Km: read-out: Kmapp", "procedure": "(§2) The enzyme was incubated at 55° C. for 15 min prior to activity determination unless otherwise indicated. Assays to determine Kmapp and Vmaxapp were conducted at 60° C. with substrate concentrations between 20×Kmapp and 0.2×Kmapp. Kinetic parameters were calculated from nonlinear best fits of the data to the Michaelis-Menten equation using Kinzyme software [26]."}, "[3]": {"details": "cited from earlier work; for time to complete inactivation: at 70° C."}, "[4]": {"substrate": "NC(=O)c1ccc[n+]([C@@H]2O[C@H](COP(=O)([O-])OP(=O)(O)OC[C@H]3O[C@@H](n4cnc5c(N)ncnc54)[C@H](OP(=O)(O)O)[C@@H]3O)[C@@H](O)[C@H]2O)c1", "test": "purified protein, by the assay type", "details": "other: 60° C.", "procedure": "as §2"}, "[5]": {"test": "2° Adh activity: standard assay and temperature effect on enzyme activity (Arrhenius plots)", "format": "biochemical", "details": "for Arrhenius plot discontinuity temperature: enzyme preincubated at 0° C. or 25° C.", "protocol": "(§1) 2° Adh thermostability was measured as the residual activity after timed incubation at the desired temperatures. Thermal inactivation was stopped by incubation for 30 min at 25° C., and samples were prepared for activity assays by preincubation at 55° C. for 15 min. Incubations were performed in […] (cat. #72.733.050, Sarstedt; Newton, N.C.) using […] protein in […]. Activity was determined using the unfractionated samples. The temperature effect on enzyme activity was studied using the substrates propan-2-ol or ethanol at 10×Kmapp concentrations.\nTo study the effect of enzyme preincubation temperature on enzyme reaction rates, the 2° Adh was incubated at 0° C., 25° C., or 55° C. for 15 min prior to activity determinations in the temperature range 30-90° C. Tris-HCl buffer pH values were adjusted at 25° C. to be pH 8.0 at the temperature they were used (thermal correction factor=-0.031 ΔpH °C.^-1). The statistical significance of the differences between the Arrhenius plot slopes above and below the discontinuity temperatures was determined by covariance analysis."}, "[6]": {"test": "2° Adh thermostability: residual activity after timed incubation at the desired temperatures", "format": "physicochemical", "protocol": "as §1"}}, "note": "Entries after “also recorded” stand apart in the source; their conditions may differ. Like-named read-outs stand apart in the source and are kept apart here.", "data": [{"molecule": "[Ca+2].[Cl-].[Cl-]", "note": "[CaCl2]", "values": [{"measurement": "effect on enzyme reactivation by DTT after DTNB inactivation", "setting": "[1]", "result": "did not affect enzyme reactivation by DTT"}]}, {"molecule": "O=S(=O)([O-])[O-].[Cd+2]", "note": "[CdSO4]", "values": [{"measurement": "effect on enzyme reactivation by DTT after DTNB inactivation", "setting": "[1]", "result": "did not affect enzyme reactivation by DTT"}]}, {"molecule": "O=C([O-])CN(CCN(CC(=O)[O-])CC(=O)O)CC(=O)[O-].[Na+].[Na+].[Na+]", "note": "[EDTA, (ethylenedinitrilo) tetraacetic acid trisodium salt]", "values": [{"measurement": "effect on enzyme reactivation by DTT after DTNB inactivation", "setting": "[1]; trisodium salt", "result": "did not affect enzyme reactivation by DTT; also recorded: inability of EDTA to reduce the rate of reactivation"}]}, {"molecule": "CCOC(=O)OC(=O)OCC", "note": "[DEPC, diethylpyrocarbonate]", "values": [{"measurement": "enzyme inactivation by modification of histidine residues", "setting": "[1]; 20 mM or 40 mM DEPC, pH 6.0, 25° C., 1.0 h", "result": "completely inactivated; also recorded: complete enzyme inactivation"}]}, {"molecule": "[Cl-].[Cl-].[Mg+2]", "note": "[MgCl2]", "values": [{"measurement": "effect on enzyme reactivation by DTT after DTNB inactivation", "setting": "[1]", "result": "did not affect enzyme reactivation by DTT"}]}, {"molecule": "[Cl-].[Cl-].[Zn+2]", "note": "[ZnCl2]", "values": [{"measurement": "activity recovery of DTNB-inactivated enzyme with DTT plus zinc", "setting": "[1]; in the presence of ZnCl2", "result": "up to 48%"}, {"measurement": "inactivation and recovery of activity of T. brockii 2° Adh", "setting": "T. brockii 2° Adh", "result": "recovered activity only in the presence of ZnCl2"}]}, {"molecule": "[Cl][Ni][Cl]", "note": "[NiCl2]", "values": [{"measurement": "recovered activity of DTNB-inactivated enzyme with DTT plus added metal salt, of the initial activity", "setting": "[1]; 60° C.", "result": 15, "unit": "%"}]}, {"molecule": "[Cl-].[Na+]", "note": "[NaCl]", "values": [{"measurement": "effect on enzyme reactivation by DTT after DTNB inactivation", "setting": "[1]", "result": "did not affect enzyme reactivation by DTT"}]}, {"molecule": "[Cl][Mn][Cl]", "note": "[MnCl2]", "values": [{"measurement": "effect on enzyme reactivation by DTT after DTNB inactivation", "setting": "[1]", "result": "did not affect enzyme reactivation by DTT"}]}, {"molecule": "CC(C)O", "note": "[propan-2-ol]", "values": [{"measurement": "Vmaxapp", "setting": "[2]", "result": 47, "unit": "U mg^-1"}, {"measurement": "Km", "setting": "[2]", "result": 1100, "unit": "µM"}]}, {"molecule": "O[C@H](CS)[C@H](O)CS", "note": "(racemic) [DTT, dithiothreitol]", "values": [{"measurement": "recovery of initial activity of DTNB-inactivated enzyme", "setting": "[1]; 60° C., DTT, no added metal", "result": 34, "unit": "%"}]}, {"molecule": "[Cl-].[Cl-].[Co+2]", "note": "[CoCl2]", "values": [{"measurement": "recovered activity of DTNB-inactivated enzyme with DTT plus added metal salt, of the initial activity", "setting": "[1]; 60° C.", "result": 10, "unit": "%"}]}, {"molecule": "[Cl][Fe][Cl]", "note": "[FeCl2]", "values": [{"measurement": "effect on enzyme reactivation by DTT after DTNB inactivation", "setting": "[1]", "result": "did not affect enzyme reactivation by DTT"}]}, {"molecule": "O=C(O)c1cc[c]([Hg][Cl])cc1", "note": "[p-chloromercuribenzoate]", "values": [{"measurement": "inactivation and recovery of activity of T. brockii 2° Adh", "setting": "T. brockii 2° Adh", "result": "inactivated"}]}, {"molecule": "CCO", "note": "[ethanol]", "values": [{"measurement": "Vmaxapp", "setting": "[2]", "result": 10, "unit": "U mg^-1"}, {"measurement": "Kmapp toward the 1° alcohol relative to the 2° alcohol", "setting": "[2]; higher than for propan-2-ol", "result": "~43", "unit": "fold"}, {"measurement": "Km", "setting": "[2]", "result": 47000, "unit": "µM"}]}, {"molecule": "NAD(H)", "values": [{"measurement": "NAD(H) dependent activity", "setting": "[2]", "result": "no NAD(H) dependent activity was detected"}]}, {"molecule": "recombinant T. ethanolicus 2° Adh (Thermoanaerobacter pseudethanolicus ATCC 33223) (protein) MKGFAMLSIGKVGWIEKEKPAPGPFDAIVRPLAVAPCTSDIHTVFEGAIGERHNMILGHEAVGEVVEVGSEVKDFKPGDRVVVPAITPDWRTSEVQRGYHQHSGGMLAGWKFSNVKDGVFGEFFHVNDADMNLAHLPKEIPLEAAVMIPDMMTTGFHGAELADIELGATVAVLGIGPVGLMAVAGAKLRGAGRIIAVGSRPVCVDAAKYYGATDIVNYKDGPIESQIMNLTEGKGVDAAIIAGGNADIMATAVKIVKPGGTIANVNYFGEGEVLPVPRLEWGCGMAHKTIKGGLCPGGRLRMERLIDLVFYKRVDPSKLVTHVFRGFDNIEKAFMLMKDKPKDLIKPVVILA", "values": [{"measurement": "activity retained after incubation", "setting": "[3]; incubation for 30 minutes at 91° C.", "result": 40, "unit": "%"}, {"measurement": "Km", "setting": "[4]", "result": 11, "unit": "µM"}]}, {"molecule": "T. ethanolicus 39E 2° Adh: thermophilic NADP(H)-dependent secondary-alcohol dehydrogenase of Thermoanaerobacter ethanolicus 39E (SEQ ID NO: 2), adhB gene expressed in E. coli, homotetramer (protein) MKGFAMLSIGKVGWIEKEKPAPGPFDAIVRPLAVAPCTSDIHTVFEGAIGERHNMILGHEAVGEVVEVGSEVKDFKPGDRVVVPAITPDWWTSEVQRGYHQHSGGMLAGWKFSNVKDGVFGEFFHVNDADMNLAHLPKEIPLEAAVMIPDMMTTGFHGAELADIELGATVAVLGIGPVGLMAVAGAKLRGAGRIIAVGSRPVCVDAAKYYGATDIVNYKDGPIESQIMNLTEGKGVDAAIIAGGNADIMATAVKIVKPGGTIANVNYFGEGEVLPVPRLEWGCGMAHKTIKGGLCPGGRLRMERLIDLVFYKPVDPSKLVTHVFQGFDNIEKAFMLMKDKPKDLIKPVVILA", "values": [{"measurement": "difference between activation energies above and below the discontinuity (Δ), ethanol oxidation relative to propan-2-ol oxidation", "setting": "[5]", "result": "at least 3 fold"}, {"measurement": "initial activity", "setting": "[5]; before DTNB modification", "result": "54±3.0", "unit": "U mg^-1"}, {"measurement": "Arrhenius plot form", "setting": "[5]; ethanol oxidation, enzyme incubated at 55° C. prior to assay (FIG. 2B)", "result": "distinct discontinuity"}, {"measurement": "Arrhenius plot discontinuity temperature", "setting": "[5]; ethanol oxidation", "result": "~ 46 °C"}, {"measurement": "temperature range of activity", "setting": "[5]; propan-2-ol oxidation, recombinant enzyme (FIG. 2A)", "result": "detected below 25 °C and increased to beyond 90 °C"}, {"measurement": "Arrhenius plot form", "setting": "[5]; propan-2-ol oxidation, enzyme incubated at 55° C. prior to assay", "result": "linear from 25 °C to 90 °C"}, {"measurement": "Arrhenius plot discontinuity temperature", "setting": "[5]; propan-2-ol oxidation", "result": "~ 55 °C"}, {"measurement": "thermostability and thermophilicity compared with other 2° Adhs", "setting": "[6]", "result": "more thermostable and thermophilic"}, {"measurement": "half-life", "setting": "[6]; at 90° C., recombinant enzyme", "result": 1.7, "unit": "h"}, {"measurement": "time for which detectable activity was retained", "setting": "[6]; incubated at 90° C.", "result": "retained detectable activity for more than one hour"}, {"measurement": "activity retained after incubation", "setting": "[6]; incubation for more than one hour at 90° C.", "result": 100, "unit": "%"}]}, {"molecule": "C. beijerinckii 2° Adh: mesophilic NADP(H)-dependent secondary-alcohol dehydrogenase of Clostridium beijerinckii (protein, UniProt P25984 1-351, looked up) NADP-dependent isopropanol …: MKGFAMLGINKLGWIEKERPVAGSYDAIVRPLAVSPCTSDIHTVFEGALGDRKNMILGHEAVGEVVEVGSEVKDFKPGDRVIVPCTTPDWRSLEVQAGFQQHSNGMLAGWKFSNFKDGVFGEYFHVNDADMNLAILPKDMPLENAVMITDMMTTGFHGAELADIQMGSSVVVIGIGAVGLMGIAGAKLRGAGRIIGVGSRPICVEAAKFYGATDILNYKNGHIVDQVMKLTNGKGVDRVIMAGGGSETLSQAVSMVKPGGIISNINYHGSGDALLIPRVEWGCGMAHKTIKGGLCPGGRLRAEMLRDMVVYNRVDLSKLVTHVYHGFDHIEEALLLMKDKPKDLIKAVVIL", "values": [{"measurement": "time to complete inactivation", "setting": "[3]", "result": "≤ 10", "unit": "min"}, {"measurement": "time to complete inactivation", "setting": "[3]; listed as C. beijerinckii", "result": "≤ 10", "unit": "min"}]}]}
